The target of data set [1] is T1, 3',5'-cyclic-AMP phosphodiesterase 4A (Homo sapiens, UniProt P27815). The data set is described as follows: Inhibition of recombinant full length human N-terminal GST-tagged PDE4A1 expressed in baculovirus infected Sf9 cells using cAMP as substrate after 1 hr by LANCE TR-FRET assay.
Data set [2] has as its target cGMP-inhibited 3',5'-cyclic phosphodiesterase 3B (Homo sapiens, UniProt Q13370). As to the kind of experiment: Inhibition of recombinant human N-terminal GST-tagged PDE3B (592-end residues) expressed in baculovirus infected Sf9 cells using cAMP as substrate after 1 hr by LANCE TR-FRET assay. Background: In TR-FRET formats the signal depends on donor and acceptor labels being close together.

The target of data set [3] is Dual 3',5'-cyclic-AMP and -GMP phosphodiesterase 11A (Homo sapiens, UniProt Q9HCR9). As to the kind of experiment: Inhibition of PDE11A (unknown origin) using cAMP as substrate after 1 hr by LANCE TR-FRET assay.
In data set [4] the target is T1, 3',5'-cyclic-AMP phosphodiesterase 4A. The data set is described as follows: Inhibition of recombinant human N-terminal GST-tagged PDE4A4 (2 to 886 residues) expressed in baculovirus infected Sf9 cells using cAMP as substrate after 1 hr by LANCE TR-FRET assay.
Data set [5] concerns the target T2, 3',5'-cyclic-AMP phosphodiesterase 4B (Homo sapiens, UniProt Q07343). As to the kind of experiment: Inhibition of recombinant human full length N-terminal GST-tagged PDE4B1 expressed in baculovirus infected Sf9 cells using cAMP as substrate after 1 hr by LANCE TR-FRET assay.
For data set [6], the target named is 3',5'-cyclic-AMP phosphodiesterase 4C (Homo sapiens, UniProt Q08493). As to the kind of experiment: Inhibition of recombinant human full length N-terminal GST-tagged PDE4C1 expressed in baculovirus infected Sf9 cells using cAMP as substrate after 1 hr by LANCE TR-FRET assay.
Data set [7] concerns the target 3',5'-cyclic-AMP phosphodiesterase 4D (Homo sapiens, UniProt Q08499). As to the kind of experiment: Inhibition of recombinant human N-terminal GST-tagged PDE4D7 (2 to 748 residues) expressed in baculovirus infected Sf9 cells using cAMP as substrate after 1 hr by LANCE TR-FRET assay.
In data set [8] the target is T2, 3',5'-cyclic-AMP phosphodiesterase 4B. The data set is described as follows: Inhibition of recombinant full length human N-terminal GST-tagged PDE4B1 expressed in baculovirus infected Sf9 cells using cAMP as substrate after 1 hr by LANCE TR-FRET assay.
For the next data set, the species on record is Homo sapiens. The data set is described as follows: Selectivity ratio of IC50 for nhibition of recombinant human N-terminal GST-tagged PDE4D7 (2 to 748 residues) expressed in baculovirus infected Sf9 cells to IC50 for recombinant full length human N-terminal GST-tagged PDE4B1 expressed in baculovirus infected Sf9 cells.
Data set [9] deals with Mus musculus. The data set is described as follows: Reversal of DNCB-induced atopic dermatitis-like symptoms in Balb/c mouse assessed as reduction in erythema administered topically once daily starting from day 6 post DNCB treatment up to 34 days. The data set is classed as functional, organism-based.
The subject of data set [10] is Mus musculus. The data set is described as follows: Reversal of DNCB-induced atopic dermatitis-like symptoms in Balb/c mouse assessed as reduction in hemorrhage administered topically once daily starting from day 6 post DNCB treatment up to 34 days. The data set is classed as functional, organism-based.
Data set [11] has as its system Mus musculus. The data set is described as follows: Reversal of DNCB-induced atopic dermatitis-like symptoms in Balb/c mouse assessed as reduction in edema administered topically once daily starting from day 6 post DNCB treatment up to 34 days. The data set is classed as functional, organism-based.
Data set [12] relates to Mus musculus. The data set is described as follows: Reversal of DNCB-induced atopic dermatitis-like symptoms in Balb/c mouse assessed as reduction in excoriation administered topically once daily starting from day 6 post DNCB treatment up to 34 days. It counts as functional, organism-based.
Data set [13] deals with Mus musculus. The data set is described as follows: Reversal of DNCB-induced atopic dermatitis-like symptoms in Balb/c mouse assessed as reduction in skin erosion administered topically once daily starting from day 6 post DNCB treatment up to 34 days. It counts as functional, organism-based.
The subject of data set [14] is Mus musculus. As to the kind of experiment: Reversal of DNCB-induced atopic dermatitis-like symptoms in Balb/c mouse assessed as reduction in skin scaling or dryness administered topically once daily starting from day 6 post DNCB treatment up to 34 days. It counts as functional, organism-based.
For data set [15], the system named is Mus musculus. The data set is described as follows: Reversal of DNCB-induced atopic dermatitis-like symptoms in Balb/c mouse assessed as reduction in scratching frequency administered topically once daily starting from day 6 post DNCB treatment up to 34 days. The data set is classed as functional, organism-based.
Data set [16] relates to Mus musculus. The data set is described as follows: Reversal of DNCB-induced atopic dermatitis-like symptoms in Balb/c mouse assessed as reduction in hypertrophy administered topically once daily starting from day 6 post DNCB treatment up to 34 days by hematoxylin and eosin staining based light microscopic method. The data set is classed as functional, organism-based.
Data set [17] has as its system Mus musculus. As to the kind of experiment: Reversal of DNCB-induced atopic dermatitis-like symptoms in Balb/c mouse assessed as reduction in signs of edema administered topically once daily starting from day 6 post DNCB treatment up to 34 days by hematoxylin and eosin staining based light microscopic method. It counts as functional, organism-based.
Data set [18] relates to Mus musculus. As to the kind of experiment: Toxicity in Balb/c mouse assessed as induction of allergy administered topically once daily up to 34 days. The data set is classed as organism-based. The note with it: in vivo, topical_or_ocular, 816 h.
Data set [19] relates to Mus musculus. The data set is described as follows: Toxicity in Balb/c mouse assessed as effect on skin architecture administered topically once daily up to 34 days by hematoxylin and eosin staining based light microscopic method. It counts as organism-based. The note with it: in vivo, topical_or_ocular, 816 h.
The subject of data set [20] is Mus musculus. As to the kind of experiment: Reversal of DNCB-induced atopic dermatitis-like symptoms in Balb/c mouse assessed as dorsal skin thickness administered topically once daily starting from day 6 post DNCB treatment up to 34 days (reference value: 1.19 millimeter). The data set is classed as functional.
The subject of data set [21] is Mus musculus. As to the kind of experiment: Reversal of DNCB-induced atopic dermatitis-like symptoms in Balb/c mouse assessed as reduction in epidermal hyperplasia administered topically once daily starting from day 6 post DNCB treatment up to 34 days by hematoxylin and eosin staining based light microscopic method. It counts as functional, organism-based.
For data set [22], the system named is Mus musculus. The data set is described as follows: Reversal of DNCB-induced atopic dermatitis-like symptoms in Balb/c mouse assessed as reduction in hyperkeratosis administered topically once daily starting from day 6 post DNCB treatment up to 34 days by hematoxylin and eosin staining based light microscopic method. It counts as functional, organism-based.

Data set [23] deals with Mus musculus. The data set is described as follows: Reversal of DNCB-induced atopic dermatitis-like symptoms in Balb/c mouse assessed as reduction in inflammatory cell infilteration in epidermal and dermal region of skin administered topically once daily starting from day 6 post DNCB treatment up to 34 days by toluidine blue staining based light microscopic method. It counts as functional, organism-based.

The subject of data set [24] is Mus musculus. As to the kind of experiment: Reversal of DNCB-induced atopic dermatitis-like symptoms in Balb/c mouse assessed as reduction in epidermal thickness administered topically once daily starting from day 6 post DNCB treatment up to 34 days by hematoxylin and eosin staining based light microscopic method. It counts as functional, organism-based.
Data set [25] deals with Mus musculus. As to the kind of experiment: Reversal of DNCB-induced atopic dermatitis-like symptoms in Balb/c mouse assessed as reduction in serum Ig-E level administered topically once daily starting from day 6 post DNCB treatment up to 34 days. The data set is classed as functional, organism-based.
The subject of data set [26] is Mus musculus. The data set is described as follows: Reversal of DNCB-induced atopic dermatitis-like symptoms in Balb/c mouse assessed as reduction in TNF-alpha level in skin administered topically once daily starting from day 6 post DNCB treatment up to 34 days. The data set is classed as functional, organism-based.

The source made the active and inactive calls. No cut-off for these calls is given here.

In ChEMBL document CHEMBL4251656, “Design, synthesis, and biological evaluation of novel catecholopyrimidine based PDE4 inhibitor for the treatment of atopic dermatitis” (Eur J Med Chem, 2018) one finds IC50, Ratio IC50 and Activity data, which are given here for eight compounds.

T2 sequence (Q07343 whole entry): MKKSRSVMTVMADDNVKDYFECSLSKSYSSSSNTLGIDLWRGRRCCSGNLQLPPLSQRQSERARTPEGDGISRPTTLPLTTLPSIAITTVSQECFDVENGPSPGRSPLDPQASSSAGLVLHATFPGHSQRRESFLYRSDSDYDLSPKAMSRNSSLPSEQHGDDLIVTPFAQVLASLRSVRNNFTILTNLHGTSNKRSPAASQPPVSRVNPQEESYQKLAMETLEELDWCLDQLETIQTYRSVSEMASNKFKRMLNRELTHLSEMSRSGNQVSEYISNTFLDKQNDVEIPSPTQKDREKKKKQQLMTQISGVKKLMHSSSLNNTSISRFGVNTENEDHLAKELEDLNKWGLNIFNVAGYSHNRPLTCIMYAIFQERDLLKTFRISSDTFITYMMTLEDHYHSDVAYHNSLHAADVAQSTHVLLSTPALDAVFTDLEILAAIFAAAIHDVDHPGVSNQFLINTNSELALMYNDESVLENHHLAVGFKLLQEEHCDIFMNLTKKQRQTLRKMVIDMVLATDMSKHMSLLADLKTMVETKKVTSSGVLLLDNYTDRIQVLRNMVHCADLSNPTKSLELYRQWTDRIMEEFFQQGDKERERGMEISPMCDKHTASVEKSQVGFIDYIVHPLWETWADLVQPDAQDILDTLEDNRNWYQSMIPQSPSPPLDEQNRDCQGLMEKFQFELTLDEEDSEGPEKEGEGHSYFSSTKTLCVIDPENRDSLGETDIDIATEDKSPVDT
Chain of 3',5'-cyclic-AMP phosphodiesterase 4D (Q08499 whole entry, the tested form may be a part): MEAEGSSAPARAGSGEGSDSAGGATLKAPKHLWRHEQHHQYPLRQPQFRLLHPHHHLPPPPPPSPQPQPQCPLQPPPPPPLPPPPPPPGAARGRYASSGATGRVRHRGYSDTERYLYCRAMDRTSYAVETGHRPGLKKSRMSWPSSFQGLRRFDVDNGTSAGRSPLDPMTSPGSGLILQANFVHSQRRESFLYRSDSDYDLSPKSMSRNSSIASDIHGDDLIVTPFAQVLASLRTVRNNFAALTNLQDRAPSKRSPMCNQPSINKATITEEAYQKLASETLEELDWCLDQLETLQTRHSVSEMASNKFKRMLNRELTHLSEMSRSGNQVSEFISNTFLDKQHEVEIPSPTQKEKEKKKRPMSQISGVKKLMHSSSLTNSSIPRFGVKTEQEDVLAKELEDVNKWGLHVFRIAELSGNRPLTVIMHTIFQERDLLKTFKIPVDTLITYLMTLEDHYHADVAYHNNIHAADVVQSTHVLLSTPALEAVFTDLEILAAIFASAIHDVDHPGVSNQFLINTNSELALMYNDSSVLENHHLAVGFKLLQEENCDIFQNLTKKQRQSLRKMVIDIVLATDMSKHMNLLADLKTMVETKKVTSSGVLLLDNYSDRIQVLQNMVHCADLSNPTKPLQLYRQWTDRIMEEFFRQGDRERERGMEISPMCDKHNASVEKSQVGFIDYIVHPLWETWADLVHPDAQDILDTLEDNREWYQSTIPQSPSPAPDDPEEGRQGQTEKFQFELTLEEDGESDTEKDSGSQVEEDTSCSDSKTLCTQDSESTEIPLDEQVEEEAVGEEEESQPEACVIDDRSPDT
Chain of 3',5'-cyclic-AMP phosphodiesterase 4C (Q08493 whole entry, the tested form may be a part): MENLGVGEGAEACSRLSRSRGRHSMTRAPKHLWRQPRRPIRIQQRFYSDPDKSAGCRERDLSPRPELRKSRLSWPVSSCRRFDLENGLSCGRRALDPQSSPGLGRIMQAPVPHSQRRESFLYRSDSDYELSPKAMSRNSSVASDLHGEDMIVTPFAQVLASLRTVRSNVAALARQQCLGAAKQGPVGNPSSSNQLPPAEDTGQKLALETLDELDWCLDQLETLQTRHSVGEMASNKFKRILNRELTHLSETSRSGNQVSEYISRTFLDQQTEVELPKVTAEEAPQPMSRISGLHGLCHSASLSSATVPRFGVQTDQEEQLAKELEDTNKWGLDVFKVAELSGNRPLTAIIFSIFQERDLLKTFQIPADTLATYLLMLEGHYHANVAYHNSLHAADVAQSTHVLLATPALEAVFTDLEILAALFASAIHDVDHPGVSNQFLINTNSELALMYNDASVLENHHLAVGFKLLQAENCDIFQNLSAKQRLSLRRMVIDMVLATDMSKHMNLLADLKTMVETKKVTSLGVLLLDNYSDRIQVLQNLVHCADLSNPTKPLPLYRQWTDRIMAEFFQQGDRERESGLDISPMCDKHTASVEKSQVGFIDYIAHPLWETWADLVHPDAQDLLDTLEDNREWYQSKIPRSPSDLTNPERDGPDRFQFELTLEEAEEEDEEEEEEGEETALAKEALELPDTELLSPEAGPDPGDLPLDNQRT
T1 sequence (P27815 whole entry): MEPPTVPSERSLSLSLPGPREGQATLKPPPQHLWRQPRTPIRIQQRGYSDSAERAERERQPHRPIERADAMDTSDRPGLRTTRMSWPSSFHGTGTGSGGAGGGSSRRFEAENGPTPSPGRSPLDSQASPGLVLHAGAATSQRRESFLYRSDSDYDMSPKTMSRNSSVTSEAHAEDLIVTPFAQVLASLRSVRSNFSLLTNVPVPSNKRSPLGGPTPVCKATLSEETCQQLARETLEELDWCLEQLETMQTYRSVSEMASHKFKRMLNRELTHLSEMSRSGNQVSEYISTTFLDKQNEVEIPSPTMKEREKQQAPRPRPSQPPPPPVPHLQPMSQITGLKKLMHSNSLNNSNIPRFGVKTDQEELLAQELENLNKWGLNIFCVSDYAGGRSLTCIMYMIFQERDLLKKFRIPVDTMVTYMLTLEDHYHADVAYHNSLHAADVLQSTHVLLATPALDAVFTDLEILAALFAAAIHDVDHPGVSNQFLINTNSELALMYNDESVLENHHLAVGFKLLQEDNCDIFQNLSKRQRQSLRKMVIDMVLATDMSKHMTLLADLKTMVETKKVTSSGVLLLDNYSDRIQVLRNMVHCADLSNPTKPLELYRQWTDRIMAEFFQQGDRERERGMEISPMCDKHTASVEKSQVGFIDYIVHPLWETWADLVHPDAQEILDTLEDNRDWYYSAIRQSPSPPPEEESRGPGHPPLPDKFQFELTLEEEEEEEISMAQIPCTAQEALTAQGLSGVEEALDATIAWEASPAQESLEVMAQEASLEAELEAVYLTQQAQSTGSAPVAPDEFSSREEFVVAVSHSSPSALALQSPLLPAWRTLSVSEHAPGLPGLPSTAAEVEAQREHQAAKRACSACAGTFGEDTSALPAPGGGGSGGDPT
Chain of Dual 3',5'-cyclic-AMP and -GMP phosphodiesterase 11A (Q9HCR9 whole entry, the tested form may be a part): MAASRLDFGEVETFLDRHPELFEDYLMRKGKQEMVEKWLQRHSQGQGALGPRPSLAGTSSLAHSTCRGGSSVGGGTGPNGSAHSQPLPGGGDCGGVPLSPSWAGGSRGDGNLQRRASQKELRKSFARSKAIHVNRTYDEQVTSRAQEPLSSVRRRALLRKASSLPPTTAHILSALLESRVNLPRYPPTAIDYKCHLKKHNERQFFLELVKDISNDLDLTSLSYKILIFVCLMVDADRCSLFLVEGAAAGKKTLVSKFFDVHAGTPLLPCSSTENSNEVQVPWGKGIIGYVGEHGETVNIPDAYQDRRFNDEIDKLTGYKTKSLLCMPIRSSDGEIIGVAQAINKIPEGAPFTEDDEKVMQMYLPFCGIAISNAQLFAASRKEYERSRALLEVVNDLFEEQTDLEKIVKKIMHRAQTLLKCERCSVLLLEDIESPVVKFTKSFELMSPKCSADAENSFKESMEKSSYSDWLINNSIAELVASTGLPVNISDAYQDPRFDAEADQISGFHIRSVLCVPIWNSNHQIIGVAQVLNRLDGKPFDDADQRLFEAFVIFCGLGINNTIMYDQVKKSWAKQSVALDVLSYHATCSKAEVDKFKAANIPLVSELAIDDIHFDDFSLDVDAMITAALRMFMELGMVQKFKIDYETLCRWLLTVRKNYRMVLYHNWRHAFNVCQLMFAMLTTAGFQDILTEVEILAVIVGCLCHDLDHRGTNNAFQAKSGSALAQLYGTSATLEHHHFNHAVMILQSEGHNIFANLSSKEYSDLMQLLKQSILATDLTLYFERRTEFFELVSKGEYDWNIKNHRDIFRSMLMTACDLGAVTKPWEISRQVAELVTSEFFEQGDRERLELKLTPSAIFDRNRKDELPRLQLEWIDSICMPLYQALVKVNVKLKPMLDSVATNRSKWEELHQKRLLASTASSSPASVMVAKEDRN

In the case of `COc1ccc(-c2nc(C(F)(F)F)ncc2C(=O)Nc2c(Cl)cncc2Cl)cc1OC`, the IC50 (commonly the concentration that gives 50% inhibition) turned out to be 281 nM in [1]; 321 nM in [2]; 245 nM in data set [3]; 89 nM in [4]; 44 nM in data set [5]; 39 nM in [6]. Besides, the IC50 in data set [7] amounted to 360 nM.

Regarding `COc1ccc(CCNC(=O)c2cnc(C(F)(F)F)nc2N2CCOCC2)cc1OC`, in [8], the IC50 is 150 nM.

As to `COc1ccc(-c2nc(C(F)(F)F)ncc2C(=O)Nc2c(C(C)C)cccc2C(C)C)cc1OC`, in data set [8], the IC50 was 222 nM.

With `COc1ccc(NC(=O)c2cnc(SC)nc2N2CCOCC2)cc1OC`, the IC50 is 756 nM in data set [1], 480 nM in data set [3] and 31 nM in data set [5].

Turning to `COc1ccc(CCNC(=O)c2cnc(SC)nc2N2CCN(CCO)CC2)cc1OC`, the IC50 in data set [8] turned out to be 238 nM.

Turning to `COc1ccc(NC(=O)c2cnc(C(F)(F)F)nc2N2CCOCC2)cc1OC`, the IC50 in data set [1] amounted to 678 nM; in [2], 950 nM; in data set [3], 1500 nM; in [4], 100 nM; in data set [5] it was 67 nM; in [6], 156 nM. The IC50 in [7] worked out at 385 nM.

Regarding `COc1ccc(CCNC(=O)c2cnc(SC)nc2N2CCOCC2)cc1OC`, the IC50 in data set [8] was determined as 61 nM; in data set [3] it was 659 nM; in [4], 284 nM; in [5], 61 nM; in data set [6], 326 nM; in data set [7], 136 nM.

For `COc1ccc(-c2nc(C(F)(F)F)ncc2C(=O)Nc2ccncc2)cc1OC`, the IC50 in data set [1] amounted to 98 nM; in data set [3] it was 250 nM; in data set [5], 15 nM. The Ratio IC50 in the data set filed under Homo sapiens was 7. Besides, the result in the data set with Mus musculus [9], with Mus musculus [10], with Mus musculus [11], with Mus musculus [12], in the data set on Mus musculus [13] and in the data set with Mus musculus [14] was Active. Besides, the result in the data set on Mus musculus [15], in the data set with Mus musculus [16], in the data set on Mus musculus [17], in the data set with Mus musculus [21], in the data set on Mus musculus [22] and with Mus musculus [23] was Active. Further, the result in the data set with Mus musculus [24], with Mus musculus [25] and with Mus musculus [26] was Active. Further, the Activity result with Mus musculus [18] is recorded as “Non-Toxic”; in the data set with Mus musculus [19], “Non-Toxic”; in the data set on Mus musculus [20] it was 0.71 mm.
